Results reported in US11723894B2, “Combination product for the treatment of neurological and/or psychiatric disorders” (Consejo Superior de Investigaciones Cientificas (CSIC), priority 2017, dated 2023).

Experiments:
[1] = test system: Human SH-SY5Y dopaminergic cells; test: 6-OHDA in vitro model of Parkinson's Disease, nitrite quantification (Griess); format: cell-based; conditions: DMT 1 μM 1 h, then 6-OHDA 30 μM 24 h
[2] = test system: Human SH-SY5Y dopaminergic cells; test: 6-OHDA in vitro model of Parkinson's Disease, cell viability (MTT); format: cell-based; conditions: tryptamine 1 μM 1 h, then 6-OHDA 30 μM 24 h
Text: Example 9: DMT, DET, DPT and 5-MeO-DMT prevent dopaminergic cell death and inflammation (Only Measured for DMT) caused by the potent and selective dopaminergic toxin 6-OHDA in an in vitro model of Parkinson's Disease. These desired effects are preserved in the presence of the 5-HT2A antagonist Ritanserin (Rit). The Human SH-SY5Y dopaminergic cell line was obtained from Sigma-Aldrich, cultured in 96-well plates and propagated in RPMI medium containing glutamine (1%) and 15% of fetal bovine serum (FBS) plus antibiotic (gentamicin), under humidified 5% CO2 and 95% air. On attaining semiconfluence, separate groups of cells were treated with either: a) one of the four hallucinogenic tryptamines at 1 μM for 1 h, followed by 6-OHDA at 30 μM for 24 hours; or b) Rit at 1 μM for 1h, followed one of the four hallucinogenic tryptamines at 1 μM for an additional hour, at which point 6-OHDA was administered, also at 30 μM, and kept for 24 hours. Vehicle-treated cultures were used as controls. Cell cultures were then processed to assess cell viability (for all four tryptamines) and quantification of nitrite concentration (only performed in the DMT and DMT+Rit tests). Cell viability was measured using the MTT assay (Roche Diagnostic, GmbH), which is based on the ability of viable cells to reduce yellow MTT to blue formazan. After the aforementioned 24 h period in the presence of the different tryptamines or the respective tryptamine+Rit combinations, cells were incubated with MTT (0.5 mg/ml, 4 h) and subsequently solubilized in 10% SDS/0.01 M HCl for 12 h in the dark. The extent of MTT reduction was quantified by absorbance measurement at the 595 nm wavelength, as indicated in the instructions provided by the manufacturer. Nitrite quantification: Due to access to equipment problems at the time the experiments with DET, DPT and 5-MeO-DMT were conducted, the assessment of nitrite levels in the medium could only be done for the DMT experiments. These determinations were carried out as described in Example 8. Results from the cell viability tests are expressed as the percentage of viable dopaminergic cells measured. Results from nitrite determinations are expressed as actual concentrations (μM). Results from both techniques are presented in bar graphs.

[3] = test system: subgranular zone of the hippocampus; test: Long-term (21 days) in vivo neurogenesis in the subgranular zone of the hippocampus (BrdU/NeuN, BrdU/DCX); set-up: species or system C57BL/6 mice
Method: Adult male C57BL/6 mice (obtained from Charles River Labs, Barcelona, Spain) were injected every other day for 3 weeks with DMT (0.1 μg/animal), alone or in combination with the selective Sigma-1 BD1063 antagonist (BD, 0.2 μg/animal, Sigma, Catalog number SML0276), the mixed 5-HT2A/1A receptor antagonist methiothepin (Met, 0.2 μg/animal, Sigma, Catalog number M149), or the selective 5-HT1A receptor antagonist WAY100635 (WAY, 0.2 μg/animal, ABCAM catalog number ab120550). On day 1 of treatment, animals were intraperitoneally injected with the proliferation marker 5-bromo-2-deoxyuridine (BrdU, 50 mg/kg, Sigma, Catalog number B5002) and sacrificed on day 21. Following anesthesia, the animals were perfused transcardially with 4% paraformaldehyde, and the brains obtained and post-fixed in the same solution at 4-8° C. overnight. They were subsequently cryoprotected, frozen, and finally cut into 30 μm coronal sections in a cryostat. Free-floating sections were immunostained using immunofluorescence analysis. For BrdU detection, samples were first incubated with 2 M HCl for 30 minutes at 37° C. before blocking 1 hour in PBS containing 5% normal serum, 0.1 M lysine, and 0.1% Triton X-100. Sections were then incubated with anti-BrdU mouse monoclonal antibody (DAKO, Barcelona, Spain, Catalog number M0744) combined with a neuronal marker, anti-neuN rabbit antibody (Abcam, Cambridge, UK. Catalog number ABN78) or an anti-double courtin (DCX) goat antibody (Santa Cruz Biotech. USA) at 4° C. overnight, washed three times and incubated with Alexa Fluor-488 goat anti-mouse and Alexa 647-goat anti-rabbit or -horse anti-goat secondary antibodies (Molecular Probes, Madrid, Spain), respectively, for 1 hour at room temperature. After rinses, sections were mounted with Vectashield.

CN(C)CCc1c[nH]c2ccccc12 [DMT, N,N-dimethyltryptamine]
nitrite production brought about by 6-OHDA ([1]; vs 6-OHDA alone): significantly reduced
reduction of nitrite levels in the presence of Ritanserin ([1]; Rit 1 μM 1 h): preserved
reduction in dopaminergic cell death in the presence of Ritanserin ([2]; Rit 1 μM 1 h): maintained
percentage of viable dopaminergic neurons ([2]; vs 6-OHDA alone): significant increases
double BrdU-NeuN stained cells (new neurons) ([3]; DMT 0.1 μg/animal every other day for 3 weeks, sacrificed day 21): increase
number of newly generated neurons as compared to basal ([3]; FIG. 6 legend, printed as after 5 days of DMT administration): doubled
